Laboratory results from paper PMC12621043, “Un-LOK-ing a New Approach for Conformational Selective Targeting of STK10 (LOK)” (ACS Medicinal Chemistry Letters, 2025).

What was measured:
Test in all cases: DSF Tm panel
Format in all cases: binding
Conditions in all cases: 10 μM compound
FGFR3A = target: T1, FGFR3A (Homo sapiens, UniProt P22607)
T1 construct: purchased in-house DSF kinase panel (SGC-style construct names; the trailing letter is the construct ID)

WNK1A = target: T2, WNK1A (Homo sapiens, UniProt Q9H4A3)
T2 construct: purchased in-house DSF kinase panel (SGC-style construct names; the trailing letter is the construct ID)

PHKG2A = target: T3, PHKG2A (Homo sapiens, UniProt P15735)
T3 construct: purchased in-house DSF kinase panel (SGC-style construct names; the trailing letter is the construct ID)
T3 sequence (P15735 6-293): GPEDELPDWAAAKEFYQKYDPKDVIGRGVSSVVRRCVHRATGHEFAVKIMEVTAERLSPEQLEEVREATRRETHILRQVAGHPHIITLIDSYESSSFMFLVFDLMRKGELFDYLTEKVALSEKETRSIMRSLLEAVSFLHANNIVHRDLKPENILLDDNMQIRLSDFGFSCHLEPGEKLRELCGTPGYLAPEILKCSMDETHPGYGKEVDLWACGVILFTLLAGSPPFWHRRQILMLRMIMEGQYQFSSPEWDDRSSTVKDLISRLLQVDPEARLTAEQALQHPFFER

SRCA = target: T4, SRCA (Homo sapiens, UniProt P12931)
T4 construct: purchased in-house DSF kinase panel (SGC-style construct names; the trailing letter is the construct ID)

MAP2K4A = target: T5, MAP2K4A (Homo sapiens, UniProt P45985)
T5 construct: purchased in-house DSF kinase panel (SGC-style construct names; the trailing letter is the construct ID)
T5 sequence (P45985 102-367): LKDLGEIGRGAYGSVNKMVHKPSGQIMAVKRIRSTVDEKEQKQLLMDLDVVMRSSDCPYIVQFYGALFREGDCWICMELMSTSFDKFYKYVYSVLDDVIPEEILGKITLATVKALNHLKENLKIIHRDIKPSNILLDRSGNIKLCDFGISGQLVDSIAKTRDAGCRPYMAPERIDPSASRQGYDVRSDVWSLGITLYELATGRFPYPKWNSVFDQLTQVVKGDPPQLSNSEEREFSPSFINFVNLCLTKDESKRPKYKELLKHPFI

RPS6KA6A = test system: RPS6KA6A
MERTK = target: T6, MERTK (Homo sapiens, UniProt Q12866)
T6 construct: purchased in-house DSF kinase panel (SGC-style construct names; the trailing letter is the construct ID)
T6 sequence (Q12866 570-864): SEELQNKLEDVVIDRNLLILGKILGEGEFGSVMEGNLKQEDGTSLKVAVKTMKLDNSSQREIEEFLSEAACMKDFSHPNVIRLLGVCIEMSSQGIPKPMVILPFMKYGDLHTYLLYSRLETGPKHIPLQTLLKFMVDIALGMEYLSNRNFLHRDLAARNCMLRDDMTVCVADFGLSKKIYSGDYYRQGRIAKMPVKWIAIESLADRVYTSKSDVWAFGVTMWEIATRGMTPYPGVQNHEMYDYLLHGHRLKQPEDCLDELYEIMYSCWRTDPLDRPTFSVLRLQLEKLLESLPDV

CAMK1GA = target: T7, CAMK1GA (Homo sapiens, UniProt Q96NX5)
T7 construct: purchased in-house DSF kinase panel (SGC-style construct names; the trailing letter is the construct ID)

NEK7A = target: T8, NEK7A (Homo sapiens, UniProt Q8TDX7)
T8 construct: purchased in-house DSF kinase panel (SGC-style construct names; the trailing letter is the construct ID)

MAPK8B = target: T9, MAPK8B (Homo sapiens, UniProt P45983)
T9 construct: purchased in-house DSF kinase panel (SGC-style construct names; the trailing letter is the construct ID)

RPS6KA5A = test system: RPS6KA5A
Experimental: The synthesized urea-based derivatives were evaluated in a panel of kinases by differential scanning fluorescence (DSF) to investigate their selectivity profile. A positive ΔT m in the DSF assay indicates stabilization of the protein upon ligand binding in comparison to its apo state, with higher thermal shifts generally correlating with stronger binding. For this purpose, we used our internal kinase selectivity panel (∼90 kinases) along with staurosporine as a positive control. […]
was performed as previously described.[1,2] Briefly, recombinant protein kinase domains at a concentration of 2 μM were mixed with 10 μM compound in a buffer containing 20 mM HEPES, […]
probe (1 µl per mL). Subsequently, temperature-dependent protein unfolding profiles were […]
The temperature was raised with a step rate of 3 °C per minute. […]
inflection point of the transition curve. […]
previously.[3] In brief, STK10, STK3, STK4 and SLK were obtained as plasmids cloned in […]
Plasmids were transfected into
KD concentration taken from TracerDB (tracerdb.org)[4] were pipetted into white 384-well

NEK2A = target: T10, NEK2A (Homo sapiens, UniProt P51955)
T10 construct: purchased in-house DSF kinase panel (SGC-style construct names; the trailing letter is the construct ID)
T10 sequence (P51955 1-271): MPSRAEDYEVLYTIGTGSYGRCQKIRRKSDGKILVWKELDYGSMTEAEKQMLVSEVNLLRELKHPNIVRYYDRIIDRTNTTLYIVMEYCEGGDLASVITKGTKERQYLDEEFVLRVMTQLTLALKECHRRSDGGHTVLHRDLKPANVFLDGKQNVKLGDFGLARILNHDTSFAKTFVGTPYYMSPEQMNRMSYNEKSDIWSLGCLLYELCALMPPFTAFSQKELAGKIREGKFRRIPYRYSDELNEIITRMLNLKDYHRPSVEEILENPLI

MSSK1A = target: T11, MSSK1A (Homo sapiens, UniProt Q9UPE1)
T11 construct: purchased in-house DSF kinase panel (SGC-style construct names; the trailing letter is the construct ID)

EPHA4A = target: T12, EPHA4A (Homo sapiens, UniProt P54764)
T12 construct: purchased in-house DSF kinase panel (SGC-style construct names; the trailing letter is the construct ID)
T12 sequence (P54764 621-882): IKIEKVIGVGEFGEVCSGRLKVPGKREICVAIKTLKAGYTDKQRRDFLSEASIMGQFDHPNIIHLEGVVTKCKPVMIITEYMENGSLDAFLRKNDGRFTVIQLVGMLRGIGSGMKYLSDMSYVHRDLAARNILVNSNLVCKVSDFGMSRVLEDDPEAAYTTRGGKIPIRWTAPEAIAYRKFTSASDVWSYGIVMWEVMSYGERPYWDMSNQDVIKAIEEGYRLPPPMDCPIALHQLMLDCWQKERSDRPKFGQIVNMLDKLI

AURKBA = target: T13, AURKBA (Homo sapiens, UniProt Q96GD4)
T13 construct: purchased in-house DSF kinase panel (SGC-style construct names; the trailing letter is the construct ID)
T13 sequence (Q96GD4 whole entry): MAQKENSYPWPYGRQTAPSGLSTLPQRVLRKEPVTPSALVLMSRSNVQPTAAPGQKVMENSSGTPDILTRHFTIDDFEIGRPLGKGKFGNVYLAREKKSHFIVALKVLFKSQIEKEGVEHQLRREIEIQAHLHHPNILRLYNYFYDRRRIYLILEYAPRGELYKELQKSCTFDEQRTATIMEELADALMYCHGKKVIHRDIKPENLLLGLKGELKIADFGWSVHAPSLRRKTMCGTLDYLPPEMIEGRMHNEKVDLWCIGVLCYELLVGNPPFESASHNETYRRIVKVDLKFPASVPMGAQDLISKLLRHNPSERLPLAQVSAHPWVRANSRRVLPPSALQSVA

T4 sequence (P12931 254-536): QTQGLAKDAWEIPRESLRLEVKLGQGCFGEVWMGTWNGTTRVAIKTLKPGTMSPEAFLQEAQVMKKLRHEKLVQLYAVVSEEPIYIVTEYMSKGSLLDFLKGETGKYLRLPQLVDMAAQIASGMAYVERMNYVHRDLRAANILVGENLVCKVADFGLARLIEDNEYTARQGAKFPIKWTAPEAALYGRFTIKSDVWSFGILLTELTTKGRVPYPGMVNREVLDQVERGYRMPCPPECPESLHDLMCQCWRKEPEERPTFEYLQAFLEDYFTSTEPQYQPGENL
T8 sequence (Q8TDX7 whole entry): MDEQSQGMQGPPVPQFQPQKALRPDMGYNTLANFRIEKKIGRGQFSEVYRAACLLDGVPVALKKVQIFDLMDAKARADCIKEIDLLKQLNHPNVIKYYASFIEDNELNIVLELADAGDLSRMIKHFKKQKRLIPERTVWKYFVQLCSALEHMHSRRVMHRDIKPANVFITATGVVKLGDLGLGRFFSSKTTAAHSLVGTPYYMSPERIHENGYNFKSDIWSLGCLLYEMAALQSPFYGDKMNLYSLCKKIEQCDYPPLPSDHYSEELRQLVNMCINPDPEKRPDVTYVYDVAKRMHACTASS
T7 sequence (Q96NX5 18-316): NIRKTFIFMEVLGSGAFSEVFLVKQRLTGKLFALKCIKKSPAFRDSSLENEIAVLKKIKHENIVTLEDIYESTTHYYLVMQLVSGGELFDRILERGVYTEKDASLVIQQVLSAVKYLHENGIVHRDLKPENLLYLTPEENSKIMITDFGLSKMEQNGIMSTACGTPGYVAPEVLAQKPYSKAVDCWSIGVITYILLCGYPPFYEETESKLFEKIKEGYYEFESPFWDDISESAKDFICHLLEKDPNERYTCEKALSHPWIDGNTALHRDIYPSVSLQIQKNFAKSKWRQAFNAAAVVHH
T2 sequence (Q9H4A3 206-483): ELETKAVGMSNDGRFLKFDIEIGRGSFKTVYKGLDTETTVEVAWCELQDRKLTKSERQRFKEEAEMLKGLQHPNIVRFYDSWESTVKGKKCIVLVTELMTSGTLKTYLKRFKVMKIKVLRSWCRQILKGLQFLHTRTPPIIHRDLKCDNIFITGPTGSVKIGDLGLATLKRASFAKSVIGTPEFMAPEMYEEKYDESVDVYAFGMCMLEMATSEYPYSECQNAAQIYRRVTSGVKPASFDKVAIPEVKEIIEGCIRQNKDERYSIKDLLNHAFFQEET
T9 sequence (P45983 1-364): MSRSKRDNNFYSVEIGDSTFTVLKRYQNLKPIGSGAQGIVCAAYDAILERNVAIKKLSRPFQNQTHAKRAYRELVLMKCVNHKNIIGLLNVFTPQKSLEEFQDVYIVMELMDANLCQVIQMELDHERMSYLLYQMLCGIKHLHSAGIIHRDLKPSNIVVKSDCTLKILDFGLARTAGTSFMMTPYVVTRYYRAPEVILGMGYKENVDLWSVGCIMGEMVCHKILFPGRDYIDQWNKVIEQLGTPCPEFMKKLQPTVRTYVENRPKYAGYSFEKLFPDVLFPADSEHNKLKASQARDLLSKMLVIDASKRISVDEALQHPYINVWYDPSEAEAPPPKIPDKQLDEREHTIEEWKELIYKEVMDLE
T11 sequence (Q9UPE1 79-565): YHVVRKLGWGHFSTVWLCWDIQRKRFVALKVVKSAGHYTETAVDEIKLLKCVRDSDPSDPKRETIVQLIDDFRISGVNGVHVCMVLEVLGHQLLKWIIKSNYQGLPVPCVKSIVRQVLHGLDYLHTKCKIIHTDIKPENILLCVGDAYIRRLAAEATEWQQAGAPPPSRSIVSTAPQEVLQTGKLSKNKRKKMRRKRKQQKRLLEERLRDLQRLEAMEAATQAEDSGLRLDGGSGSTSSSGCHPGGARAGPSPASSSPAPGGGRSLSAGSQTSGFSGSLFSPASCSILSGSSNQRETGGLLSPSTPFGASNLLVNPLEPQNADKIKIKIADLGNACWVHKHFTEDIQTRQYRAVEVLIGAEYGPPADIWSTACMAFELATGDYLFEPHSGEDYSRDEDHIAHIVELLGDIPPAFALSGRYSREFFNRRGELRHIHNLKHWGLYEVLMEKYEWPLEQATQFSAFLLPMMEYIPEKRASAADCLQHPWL
T1 sequence (P22607 472-761): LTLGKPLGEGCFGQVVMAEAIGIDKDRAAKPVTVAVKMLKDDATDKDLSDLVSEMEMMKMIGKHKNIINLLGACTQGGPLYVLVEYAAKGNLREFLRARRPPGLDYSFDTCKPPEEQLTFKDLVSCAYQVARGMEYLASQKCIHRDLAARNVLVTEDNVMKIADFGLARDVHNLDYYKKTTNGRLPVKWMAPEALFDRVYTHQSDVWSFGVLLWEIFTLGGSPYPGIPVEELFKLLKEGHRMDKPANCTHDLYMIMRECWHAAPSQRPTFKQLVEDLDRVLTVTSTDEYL

Structure (SMILES) | ΔTm at 10 µM (FGFR3A) [°C] | ΔTm at 10 µM (WNK1A) [°C] | ΔTm at 10 µM (PHKG2A) [°C] | ΔTm at 10 µM (SRCA) [°C] | ΔTm at 10 µM (MAP2K4A) [°C] | ΔTm at 10 µM (MERTK) [°C] | ΔTm at 10 µM (CAMK1GA) [°C] | ΔTm at 10 µM (NEK7A) [°C] | ΔTm at 10 µM (MAPK8B) [°C] | ΔTm at 10 µM (NEK2A) [°C] | ΔTm at 10 µM (MSSK1A) [°C] | ΔTm at 10 µM (EPHA4A) [°C] | ΔTm at 10 µM (AURKBA) [°C] | ΔTm RPS6KA6A (RPS6KA6A) | ΔTm RPS6KA5A (RPS6KA5A)
O=C(NCc1ccccc1Cl)Nc1ccc2cc1OCCOCCNc1ccn3ncc-2c3n1 [compound 17] | 2.1 | 0.5 | 0.6 | 1.8 | 5 | 1.6 | 0.9 | – | – | – | – | – | – | -0,3 °C | –
O=C(NCc1ccc(Cl)cc1Cl)Nc1ccc2cc1OCCOCCNc1ccn3ncc-2c3n1 [compound 20] | 1.4 | 0.4 | 0.8 | 1.2 | 3.9 | 2.2 | 2.7 | – | – | – | – | – | – | 0,5 °C | –
O=C(NCc1ccc(Cl)cc1F)Nc1ccc2cc1OCCOCCNc1ccn3ncc-2c3n1 [compound 21] | 1.6 | -0.2 | 0.9 | 2.6 | 5.4 | 2.7 | 2 | – | – | – | – | – | – | -0,7 °C | –
O=C(NCc1ccc(Cl)cc1)Nc1ccc2cc1OCCOCCNc1ccn3ncc-2c3n1 [compound 19] | 1.7 | -0.2 | 1.2 | 2.1 | 5.7 | 2.5 | 0.9 | – | – | – | – | – | – | -0,2 °C | –
O=C(NCc1ccccc1C(F)(F)F)Nc1ccc2cc1OCCOCCNc1ccn3ncc-2c3n1 [compound 27] | – | – | – | 2.5 | 5.1 | – | – | 2 | 0.5 | -0.4 | 0.5 | 0.3 | 8.6 | – | 1,3 °C
COc1cc(CNC(=O)Nc2ccc3cc2OCCOCCNc2ccn4ncc-3c4n2)ccc1F [compound 33] | – | – | – | 2.6 | 3.6 | – | – | 1.4 | 0.9 | -1.3 | 0.4 | 0.4 | 9.1 | – | 0,7 °C
COc1ccc(CNC(=O)Nc2ccc3cc2OCCOCCNc2ccn4ncc-3c4n2)cc1F [compound 32] | – | – | – | 2.6 | 4 | – | – | 1.3 | 0.8 | -1.3 | 0.4 | 0.4 | 7.9 | – | 1,1 °C
O=C(NCc1cccc(Cl)c1)Nc1ccc2cc1OCCOCCNc1ccn3ncc-2c3n1 [compound 18] | 3.6 | 0.09 | 0.4 | 2.6 | 4.1 | 1.8 | 0.8 | – | – | – | – | – | – | -0,3 °C | –
COc1ccccc1CNC(=O)Nc1ccc2cc1OCCOCCNc1ccn3ncc-2c3n1 [compound 29] | – | – | – | 2 | 2.8 | – | – | 1.7 | 1.1 | -0.3 | 0.5 | 0.3 | 6.6 | – | 0,2 °C
COc1ccc(CNC(=O)Nc2ccc3cc2OCCOCCNc2ccn4ncc-3c4n2)cc1 [compound 31] | – | – | – | 3.2 | 4.3 | – | – | 0.6 | 1.1 | -1.3 | 0.7 | 0.4 | 7.6 | – | –
O=C(NCc1ccc(C(F)(F)F)cc1)Nc1ccc2cc1OCCOCCNc1ccn3ncc-2c3n1 [compound 28] | – | – | – | 2.3 | 5 | – | – | 2.3 | 0.9 | 0.4 | 0.3 | 0.5 | 9 | – | 1,5 °C
COc1cccc(CNC(=O)Nc2ccc3cc2OCCOCCNc2ccn4ncc-3c4n2)c1 [compound 30] | – | – | – | 2.7 | 3.2 | – | – | 1 | 1.2 | -0.5 | 0.4 | 0.3 | 7.3 | – | 0,3 °C

Now from value to compound, other results behind:

ΔTm at 10 µM (FGFR3A) [°C] | ΔTm at 10 µM (WNK1A) [°C] | ΔTm at 10 µM (PHKG2A) [°C] | ΔTm at 10 µM (SRCA) [°C] | ΔTm at 10 µM (MAP2K4A) [°C] | ΔTm at 10 µM (MERTK) [°C] | ΔTm at 10 µM (CAMK1GA) [°C] | ΔTm at 10 µM (NEK7A) [°C] | ΔTm at 10 µM (MAPK8B) [°C] | ΔTm at 10 µM (NEK2A) [°C] | ΔTm at 10 µM (MSSK1A) [°C] | ΔTm at 10 µM (EPHA4A) [°C] | ΔTm at 10 µM (AURKBA) [°C] | Structure (SMILES) | ΔTm RPS6KA6A (RPS6KA6A) | ΔTm RPS6KA5A (RPS6KA5A)
2.5 | 1.6 | 0.5 | 1.5 | 4.8 | 3.1 | 2 | – | – | – | – | – | – | Cc1cc(Cl)ccc1CNC(=O)Nc1ccc2cc1OCCOCCNc1ccn3ncc-2c3n1 [compound 23] | -0,3 °C | –
– | – | – | 1.7 | 3.2 | – | – | 1.6 | 0.6 | -1.3 | 0.2 | 0.2 | 7.7 | Cc1cc(Br)ccc1CNC(=O)Nc1ccc2cc1OCCOCCNc1ccn3ncc-2c3n1 [compound 24] | – | 1,0 °C
3 | 0.4 | -0.1 | 0.7 | 1.8 | 0.4 | 0 | – | – | – | – | – | – | CN1CCN(C(=O)Nc2ccc3cc2OCCOCCNc2ccn4ncc-3c4n2)CC1 [compound 35] | -0,3 °C | –
– | – | – | 2.2 | 3.2 | – | – | 0.9 | 0.5 | -1.2 | 0.4 | 0.3 | 7.8 | Cc1ccc(F)cc1CNC(=O)Nc1ccc2cc1OCCOCCNc1ccn3ncc-2c3n1 [compound 26] | – | 0,7 °C
5 | 0 | 1.3 | 2.5 | 5.2 | 1.4 | -0.3 | – | – | – | – | – | – | O=C(NCc1ccccc1)Nc1ccc2cc1OCCOCCNc1ccn3ncc-2c3n1 [compound 16] | -1,2 °C | –
– | – | – | 1.4 | 3.3 | – | – | 0.9 | 0.9 | -1.3 | 0.4 | 0.3 | 7.1 | C[C@H](NC(=O)Nc1ccc2cc1OCCOCCNc1ccn3ncc-2c3n1)c1ccccc1 [compound 34] | – | 0,6 °C
